Laboratory results published in patent publication US20260209297A1, “ANTIMICROBIAL PEPTIDES AND MODIFICATIONS THEREOF” (priority 2022, published 2026).
Converted amounts (≈) assume the structure as drawn. Where two headings read alike, the source gives them in different places. Positions of bridges follow the written chain, without caps; N, C: chain ends. Non-standard residues stand in square brackets, D forms with d. Residues, ends and D or L forms follow the SMILES beside them. No end group written: not given here. Dab = NCC[C@H](N)C(=O)O

Experiments:
B. cinerea [1] = assay: MIC antifungal assay in SFM culture media (with or without added salts); format: cell-based, Botrytis cinerea; conditions: for antifungal activity relative to the wild-type GMA4C_AC control, B. cinerea: in vitro, low cationic conditions
F. graminearum = format: cell-based, Fusarium graminearum; conditions: in vitro, low cationic conditions
P. capsici = assay: MIC antifungal assay in SFM culture media; format: cell-based; conditions: in vitro, low cationic conditions
F. oxysporum = assay: MIC antifungal assay in SFM culture media; format: cell-based; conditions: in vitro, low cationic conditions
Coccidioides sp. = format: cell-based; conditions: Table 8
C. parapsilosis = assay: MIC, CLSI M27/M38, half-strength potato dextrose broth; format: cell-based, Candida parapsilosis; conditions: C. parapsilosis ATCC 22019; Table 8
Procedure: (§1) MICs were determined at 24-72 hours.

Candida auris = conditions: for MIC values (μg/ml) 100%: Table 8
Candida albicans = conditions: for MIC values (μg/ml) 100%: Table 8
Fusarium (F. oxysporum) = assay: MIC, CLSI M27/M38, half-strength potato dextrose broth; format: cell-based; conditions: Table 8
Procedure: as §1

Fusarium (F. solani) = assay: as above; format: cell-based; conditions: Fusarium F4 (F. solani); Table 8
Procedure: as §1

[2] = system: Tricophyton metagrophytes; assay: MIC against human nail pathogens; conditions: isolate 26103; Table 13
Tricophyton rubrum = assay: MIC against human nail pathogens; conditions: isolate 23014; Table 13
[3] = system: Fusarium graminearum PH-1; format: cell-based; conditions: for F. graminearum PH-1 MIC Day 1: Fusarium graminearum PH-1, 96-well, resazurin viability
Botrytis cinerea T4 = format: cell-based
Alternaria alternata = assay: 96-well plate MIC assay with resazurin viability; format: cell-based; conditions: Table 19; unit not given (peptide concentrations in μM)
Botrytis cinerea T-4 = conditions: Table 18
Cercospora sojina = assay: 96-well plate MIC assay with resazurin viability; format: cell-based; conditions: Table 19; unit not given (peptide concentrations in μM)
[4] = system: Colletotrichum gloeosporioides; assay: 96-well plate MIC assay with resazurin viability; format: cell-based; conditions: Table 19; unit not given (peptide concentrations in μM)
B. cinerea [5] = assay: Semi-in planta gray mold assay on detached Nicotiana benthamiana leaves (drop inoculation); format: in vivo, Botrytis cinerea; conditions: detached N. benthamiana leaves; 1.5 μM, 3 μM and 6 μM; 48 h
C. albicans = assay: Peptide or protein/Fluconazole combination MIC and FICI; conditions: combination with Fluconazole

In the case of `NCC[C@H](NC(=O)CNC(=O)[C@@H](N)Cc1ccccc1)C(=O)N[C@@H](CS)C(=O)N[C@@H](CCN)C(=O)NCC(=O)N[C@@H](Cc1ccccc1)C(=O)N[C@@H](CCN)C(=O)N[C@@H](CCN)C(=O)N[C@@H](CCN)C(=O)N[C@@H](CS)C(=O)N[C@@H](Cc1ccccc1)C(=O)N[C@@H](CS)C(=O)N[C@@H](Cc1c[nH]c2ccccc12)C(=O)N[C@@H](CCN)C(=O)N[C@@H](Cc1c[nH]c2ccccc12)C(=O)N[C@@H](CS)C(N)=O` [GMA4C_V5A, FG(Dab)C(Dab)GF(Dab)(Dab)(Dab)CFCW(Dab)WC-NH2] (H-FG[Dab]C[Dab]GF[Dab][Dab][Dab]CFCW[Dab]WC-NH2; N-terminus assumed), the “antifungal activity relative to the wild-type GMA4C_AC control, B. cinerea” value (B. cinerea [1]) is reported as “equivalent”, the “antifungal activity relative to the wild-type GMA4C_AC control, F. graminearum” value (F. graminearum) is reported as “equivalent” and the “antifungal activity relative to the wild-type GMA4C_AC control, P. capsici” value (P. capsici) is reported as “equivalent”. The “antifungal activity relative to the wild-type GMA4C_AC control, F. oxysporum” value (F. oxysporum) was “equivalent”.
With `CC[C@H](C)[C@H](NC(=O)[C@H](CCCNC(=N)N)NC(=O)[C@@H](NC(=O)[C@H](CS)NC(=O)[C@H](Cc1ccccc1)NC(=O)[C@H](CS)NC(=O)[C@H](CCCNC(=N)N)NC(=O)[C@H](CCCNC(=N)N)NC(=O)[C@H](CCCNC(=N)N)NC(=O)[C@H](Cc1ccccc1)NC(=O)CNC(=O)[C@H](CCCNC(=N)N)NC(=O)[C@H](CS)NC(=O)[C@H](CCCNC(=N)N)NC(=O)CNC(=O)CN)[C@@H](C)O)C(=O)N[C@@H](CS)C(N)=O` [GMA4C_V2A] (H-GGRCRGFRRRCFCTRIC-NH2; N-terminus assumed) the “MIC values (μg/ml) 100%” value (Coccidioides sp.; Coccidioides sp. Cocci1) was 8 µg/mL (≈ 3.91 µM), the “MIC values (μg/ml) 100%” value (Coccidioides sp.; Coccidioides sp. Cocci2) was 16 µg/mL (≈ 7.82 µM) and the “MIC values (μg/ml) 100%” value (Coccidioides sp.; Coccidioides sp. DI17-143) was 16 µg/mL (≈ 7.82 µM). The “antifungal activity relative to the wild-type GMA4C_AC control, B. cinerea” value (B. cinerea [1]) was “two-fold reduction”, the “MIC values (μg/ml) 100%” value (C. parapsilosis) was 8 µg/mL (≈ 3.91 µM) and the “antifungal activity relative to the wild-type GMA4C_AC control, F. graminearum” value (F. graminearum) was “two-fold reduction”. For the same compound, the “MIC values (μg/ml) 100%” value (Aspergillus fumigatus; Aspergillus fumigatus AF293, Table 8) was 32 µg/mL (≈ 15.6 µM), the “MIC values (μg/ml) 100%” value (Candida auris; Candida auris DI17-46) was 16 µg/mL (≈ 7.82 µM) and the “MIC values (μg/ml) 100%” value (Candida auris; Candida auris DI17-47) was 16 µg/mL (≈ 7.82 µM). The “MIC values (μg/ml) 100%” value (Candida auris; Candida auris DI17-48) was 16 µg/mL (≈ 7.82 µM), the “MIC values (μg/ml) 100%” value (Candida albicans; Candida albicans ATCC 90028) was 16 µg/mL (≈ 7.82 µM) and the “MIC values (μg/ml) 100%” value (Candida albicans; Candida albicans CA3) was 16 µg/mL (≈ 7.82 µM). The “MIC values (μg/ml) 100%” value (Candida albicans; Candida albicans SC5314) was 16 µg/mL (≈ 7.82 µM), the “MIC values (μg/ml) 100%” value (Fusarium (F. oxysporum); Fusarium F1 (F. oxysporum)) was 8 µg/mL (≈ 3.91 µM) and the “MIC values (μg/ml) 100%” value (Fusarium (F. oxysporum); Fusarium F2 (F. oxysporum)) was 16 µg/mL (≈ 7.82 µM). The “MIC values (μg/ml) 100%” value (Fusarium (F. solani)) was 8 µg/mL (≈ 3.91 µM).
For “OeDef1_V3: OeDef1 variant, printed with SEQ ID NO: 769 in Table 13 (GACLKNRHSKHYGWFWYYRHCY-NH2; disulfide 3-21 (inferred))”, the “MIC in μM Tricophyton metagrophytes (26103)” value [2] was 4.0 µM, the “MIC in μM Aspergillus fumigatus (36843)” value (Aspergillus fumigatus; isolate 36843, Table 13) was over 7.9 µM and the “MIC in μM Tricophyton rubrum (23014)” value (Tricophyton rubrum) was 4.0 µM.
For “PD81.1.1: SEQ ID NO: 534 with N-terminal alanine; Pinus sylvestris wild-type defensin, expressed in Pichia pastoris (RMCKTPSGKFKGYCVSSTNCKNVCRTEGFPTGSCDFHVASRKCYCYKPC; N-terminal alanine added; listed as Pinus sylvestris)”, the “F. graminearum PH-1 MIC Day 1” value [3] was 1.5 µM and the “MIC against B. cinerea” value (Botrytis cinerea T4) was 1 µM.
For `N=C(N)NCCC[C@H](NC(=O)CNC(=O)[C@@H](N)Cc1ccccc1)C(=O)N[C@@H](CS)C(=O)N[C@@H](CCCNC(=N)N)C(=O)NCC(=O)N[C@@H](Cc1ccccc1)C(=O)N[C@@H](CCCNC(=N)N)C(=O)N[C@@H](CCCNC(=N)N)C(=O)N[C@@H](CCCNC(=N)N)C(=O)N[C@@H](CS)C(=O)N[C@@H](Cc1ccccc1)C(=O)N[C@@H](CS)C(=O)N[C@@H](Cc1c[nH]c2ccccc12)C(=O)N[C@@H](CCCNC(=N)N)C(=O)N[C@@H](Cc1c[nH]c2ccccc12)C(=O)N[C@@H](CS)C(N)=O` [GMA4C_V4A] (H-FGRCRGFRRRCFCWRWC-NH2; N-terminus assumed), the “fungal growth inhibition at 6 μM” value (B. cinerea [1]; B. cinerea, in presence of 2 mM CaCl2, 6 μM) was “inhibit fungal growth”, the “potency of activity relative to GMA4C_AC” value (B. cinerea [1]; B. cinerea, in presence of 100 mM NaCl or 100 mM KCl) was 2 fold and the “antifungal activity relative to the wild-type GMA4C_AC control, B. cinerea” value (B. cinerea [1]) was “equivalent”. The “antifungal activity relative to the wild-type GMA4C_AC control, F. graminearum” value (F. graminearum) was “equivalent”, the “antifungal activity relative to the wild-type GMA4C_AC control, P. capsici” value (P. capsici) was “equivalent” and the “antifungal activity relative to the wild-type GMA4C_AC control, F. oxysporum” value (F. oxysporum) was “equivalent”.
For `C[C@@H]1[C@H](O)[C@@H](C)/C=C/C=C/C=C/C=C/C=C/C=C/C=C/[C@H](O[C@@H]2O[C@H](C)[C@@H](O)[C@H](N)[C@@H]2O)C[C@@H]2O[C@](O)(C[C@@H](O)C[C@@H](O)[C@H](O)CC[C@@H](O)C[C@@H](O)CC(=O)O[C@H]1C)C[C@H](O)[C@H]2C(=O)O` [Amphotericin-B, reference compound], the “MIC against F. graminearum” value ([3]; F. graminearum PH-1, Example 7) was 6 µM (≈ 5.54 µg/mL), the “F. graminearum PH-1 MIC Day 1” value [3] was 6 µM and the “MIC against B. cinerea” value (Botrytis cinerea T4) was 3 µM (≈ 2.77 µg/mL).
With `CC[C@H](C)[C@@H]1NC(=O)[C@H](CCCNC(=N)N)NC(=O)[C@H]([C@@H](C)O)NC(=O)[C@H](Cc2ccccc2)NC(=O)[C@H](Cc2c[nH]c3ccccc23)NC(=O)[C@H](Cc2ccccc2)NC(=O)[C@H](CCCNC(=N)N)NC(=O)[C@H](CCCNC(=N)N)NC(=O)[C@H](CC(C)C)NC(=O)[C@H](Cc2ccccc2)NC(=O)CNC(=O)[C@H](CCCCN)NC(=O)[C@@H](NC(=O)[C@H](CCCNC(=N)N)NC(=O)CNC(=O)CN)CSSC[C@@H](C(N)=O)NC1=O` [GMA4C_V9] (H-GGRCKGFLRRFWFTRIC-NH2; disulfide 4-17; N-terminus assumed) the “MIC Alternaria alternata” value (Alternaria alternata) was over 12, the “MIC (μM) SFM” value (Botrytis cinerea T-4; SFM) was 3 µM (≈ 6.3 µg/mL) and the “MIC (μM) (SFM + 2 mM CaCl2)” value (Botrytis cinerea T-4) was 12 µM. For the same compound, the “MIC (μM) (SFM + 100 mM NaCl)” value (Botrytis cinerea T-4) was 3 µM, the “MIC Cercospora sojina” value (Cercospora sojina) was 6 and the “MIC Colletotrichum gloeosporioides” value [4] was over 12. For the same compound, the “reducing gray mold disease symptoms (lesion sizes)” value (B. cinerea [5]) was “effective”.
For `CC[C@H](C)[C@H](NC(=O)[C@H](CCCNC(=N)N)NC(=O)[C@@H](NC(=O)[C@@H](NC(=O)[C@H](Cc1ccccc1)NC(=O)[C@@H](NC(=O)[C@H](CCCNC(=N)N)NC(=O)[C@H](CCCNC(=N)N)NC(=O)[C@H](CCCNC(=N)N)NC(=O)[C@H](Cc1ccccc1)NC(=O)CNC(=O)[C@H](CCCNC(=N)N)NC(=O)[C@H](CS)NC(=O)[C@H](CCCNC(=N)N)NC(=O)CNC(=O)CN)C(C)C)C(C)C)[C@@H](C)O)C(=O)N[C@@H](CS)C(N)=O` [GMA4C_V3A] (H-GGRCRGFRRRVFVTRIC-NH2; N-terminus assumed), the “antifungal activity relative to the wild-type GMA4C_AC control, B. cinerea” value (B. cinerea [1]) was “equivalent”, the “antifungal activity relative to the wild-type GMA4C_AC control, F. graminearum” value (F. graminearum) was “equivalent” and the “MIC in μM Aspergillus fumigatus (36843)” value (Aspergillus fumigatus) was 11.2 µM (≈ 22.8 µg/mL). The “Candida auris (38883) MIC” value (Candida auris) was 5.6 µM, the “antifungal activity relative to the wild-type GMA4C_AC control, P. capsici” value (P. capsici) was “equivalent” and the Interpretation (C. albicans) was “Conclusion: GMA4C_v3 shows synergistic enhancement of antifungal activity against drug resistant C. albicans in combination with Fluconazole”. For the same compound, the “antifungal activity relative to the wild-type GMA4C_AC control, F. oxysporum” value (F. oxysporum) was “equivalent” and the “Candida albicans (33795) MIC” value (Candida albicans) was 2.8 µM.
